# Experimental data taken from the NIST ThermoML archive (doi:10.1016/j.jct.2004.09.007).
# Numbers after ± are expanded uncertainties.
# Assay: molar heat capacity at constant pressure; xn = mol fraction of the nth substance listed
# Conditions: 101.3 kPa, Liquid, Large sample (1 g) DSC
structure (smiles),measurement,setting,value
"CC(O)CCO (stereo unspecified) [1,3-butanediol] + CCCCO",molar heat capacity at constant pressure,"285.15 K, x1 = 0.189",178.21 ± 2.8 J/K/mol
same,molar heat capacity at constant pressure,"285.15 K, x1 = 0.2983",183.56 ± 2.8 J/K/mol
same,molar heat capacity at constant pressure,"285.15 K, x1 = 0.436",189.77 ± 2.9 J/K/mol
same,molar heat capacity at constant pressure,"285.15 K, x1 = 0.5902",196.24 ± 3 J/K/mol
same,molar heat capacity at constant pressure,"285.15 K, x1 = 0.7056",200.97 ± 3.1 J/K/mol
same,molar heat capacity at constant pressure,"285.15 K, x1 = 0.8961",210.06 ± 3.2 J/K/mol
same,molar heat capacity at constant pressure,"285.15 K, x1 = 1",211.74 ± 3.3 J/K/mol
same,molar heat capacity at constant pressure,"285.65 K, x1 = 0.189",178.59 ± 2.8 J/K/mol
same,molar heat capacity at constant pressure,"285.65 K, x1 = 0.2983",183.85 ± 2.9 J/K/mol
same,molar heat capacity at constant pressure,"285.65 K, x1 = 0.436",190.08 ± 2.9 J/K/mol
same,molar heat capacity at constant pressure,"285.65 K, x1 = 0.5902",196.61 ± 3 J/K/mol
same,molar heat capacity at constant pressure,"285.65 K, x1 = 0.7056",201.4 ± 3.1 J/K/mol
same,molar heat capacity at constant pressure,"285.65 K, x1 = 0.8961",208.67 ± 3.2 J/K/mol
same,molar heat capacity at constant pressure,"285.65 K, x1 = 1",212.17 ± 3.3 J/K/mol
same,molar heat capacity at constant pressure,"288.15 K, x1 = 0.189",179.92 ± 2.8 J/K/mol
same,molar heat capacity at constant pressure,"288.15 K, x1 = 0.2983",185.21 ± 2.9 J/K/mol
same,molar heat capacity at constant pressure,"288.15 K, x1 = 0.436",191.37 ± 3 J/K/mol
same,molar heat capacity at constant pressure,"288.15 K, x1 = 0.5902",198 ± 3.1 J/K/mol
same,molar heat capacity at constant pressure,"288.15 K, x1 = 0.7056",202.79 ± 3.1 J/K/mol
same,molar heat capacity at constant pressure,"288.15 K, x1 = 0.8961",210.1 ± 3.2 J/K/mol
same,molar heat capacity at constant pressure,"288.15 K, x1 = 1",213.57 ± 3.3 J/K/mol
same,molar heat capacity at constant pressure,"290.65 K, x1 = 0.189",181.38 ± 2.8 J/K/mol
same,molar heat capacity at constant pressure,"290.65 K, x1 = 0.2983",186.6 ± 2.9 J/K/mol
same,molar heat capacity at constant pressure,"290.65 K, x1 = 0.436",192.85 ± 3 J/K/mol
same,molar heat capacity at constant pressure,"290.65 K, x1 = 0.5902",199.46 ± 3.1 J/K/mol
same,molar heat capacity at constant pressure,"290.65 K, x1 = 0.7056",204.22 ± 3.2 J/K/mol
same,molar heat capacity at constant pressure,"290.65 K, x1 = 0.8961",211.53 ± 3.3 J/K/mol
same,molar heat capacity at constant pressure,"290.65 K, x1 = 1",215.06 ± 3.3 J/K/mol
same,molar heat capacity at constant pressure,"293.15 K, x1 = 0.189",182.92 ± 2.8 J/K/mol
same,molar heat capacity at constant pressure,"293.15 K, x1 = 0.2983",188.08 ± 2.9 J/K/mol
same,molar heat capacity at constant pressure,"293.15 K, x1 = 0.436",194.38 ± 3 J/K/mol
same,molar heat capacity at constant pressure,"293.15 K, x1 = 0.5902",200.87 ± 3.1 J/K/mol
same,molar heat capacity at constant pressure,"293.15 K, x1 = 0.7056",205.67 ± 3.2 J/K/mol
same,molar heat capacity at constant pressure,"293.15 K, x1 = 0.8961",213 ± 3.3 J/K/mol
same,molar heat capacity at constant pressure,"293.15 K, x1 = 1",216.58 ± 3.4 J/K/mol
same,molar heat capacity at constant pressure,"295.65 K, x1 = 0.189",184.43 ± 2.9 J/K/mol
same,molar heat capacity at constant pressure,"295.65 K, x1 = 0.2983",189.64 ± 2.9 J/K/mol
same,molar heat capacity at constant pressure,"295.65 K, x1 = 0.436",195.81 ± 3 J/K/mol
same,molar heat capacity at constant pressure,"295.65 K, x1 = 0.5902",202.4 ± 3.1 J/K/mol
same,molar heat capacity at constant pressure,"295.65 K, x1 = 0.7056",207.15 ± 3.2 J/K/mol
same,molar heat capacity at constant pressure,"295.65 K, x1 = 0.8961",214.51 ± 3.3 J/K/mol
same,molar heat capacity at constant pressure,"295.65 K, x1 = 1",218.04 ± 3.4 J/K/mol
same,molar heat capacity at constant pressure,"298.15 K, x1 = 0.189",186.01 ± 2.9 J/K/mol
same,molar heat capacity at constant pressure,"298.15 K, x1 = 0.2983",191.11 ± 3 J/K/mol
same,molar heat capacity at constant pressure,"298.15 K, x1 = 0.436",197.31 ± 3.1 J/K/mol
same,molar heat capacity at constant pressure,"298.15 K, x1 = 0.5902",203.91 ± 3.2 J/K/mol
same,molar heat capacity at constant pressure,"298.15 K, x1 = 0.7056",208.58 ± 3.2 J/K/mol
same,molar heat capacity at constant pressure,"298.15 K, x1 = 0.8961",216.08 ± 3.4 J/K/mol
same,molar heat capacity at constant pressure,"298.15 K, x1 = 1",219.62 ± 3.4 J/K/mol
same,molar heat capacity at constant pressure,"300.65 K, x1 = 0.189",187.6 ± 2.9 J/K/mol
same,molar heat capacity at constant pressure,"300.65 K, x1 = 0.2983",192.65 ± 3 J/K/mol
same,molar heat capacity at constant pressure,"300.65 K, x1 = 0.436",198.88 ± 3.1 J/K/mol
same,molar heat capacity at constant pressure,"300.65 K, x1 = 0.5902",205.47 ± 3.2 J/K/mol
same,molar heat capacity at constant pressure,"300.65 K, x1 = 0.7056",210.16 ± 3.3 J/K/mol
same,molar heat capacity at constant pressure,"300.65 K, x1 = 0.8961",217.6 ± 3.4 J/K/mol
same,molar heat capacity at constant pressure,"300.65 K, x1 = 1",221.14 ± 3.4 J/K/mol
same,molar heat capacity at constant pressure,"303.15 K, x1 = 0.189",189.31 ± 2.9 J/K/mol
same,molar heat capacity at constant pressure,"303.15 K, x1 = 0.2983",194.35 ± 3 J/K/mol
same,molar heat capacity at constant pressure,"303.15 K, x1 = 0.436",200.51 ± 3.1 J/K/mol
same,molar heat capacity at constant pressure,"303.15 K, x1 = 0.5902",207.08 ± 3.2 J/K/mol
same,molar heat capacity at constant pressure,"303.15 K, x1 = 0.7056",211.81 ± 3.3 J/K/mol
same,molar heat capacity at constant pressure,"303.15 K, x1 = 0.8961",219.24 ± 3.4 J/K/mol
same,molar heat capacity at constant pressure,"303.15 K, x1 = 1",222.8 ± 3.5 J/K/mol
same,molar heat capacity at constant pressure,"305.65 K, x1 = 0.189",191.04 ± 3 J/K/mol
same,molar heat capacity at constant pressure,"305.65 K, x1 = 0.2983",195.99 ± 3 J/K/mol
same,molar heat capacity at constant pressure,"305.65 K, x1 = 0.436",202.12 ± 3.1 J/K/mol
same,molar heat capacity at constant pressure,"305.65 K, x1 = 0.5902",208.6 ± 3.2 J/K/mol
same,molar heat capacity at constant pressure,"305.65 K, x1 = 0.7056",213.36 ± 3.3 J/K/mol
same,molar heat capacity at constant pressure,"305.65 K, x1 = 0.8961",220.73 ± 3.4 J/K/mol
same,molar heat capacity at constant pressure,"305.65 K, x1 = 1",224.37 ± 3.5 J/K/mol
same,molar heat capacity at constant pressure,"308.15 K, x1 = 0.189",192.78 ± 3 J/K/mol
same,molar heat capacity at constant pressure,"308.15 K, x1 = 0.2983",197.71 ± 3.1 J/K/mol
same,molar heat capacity at constant pressure,"308.15 K, x1 = 0.436",203.81 ± 3.2 J/K/mol
same,molar heat capacity at constant pressure,"308.15 K, x1 = 0.5902",210.26 ± 3.3 J/K/mol
same,molar heat capacity at constant pressure,"308.15 K, x1 = 0.7056",215.04 ± 3.3 J/K/mol
same,molar heat capacity at constant pressure,"308.15 K, x1 = 0.8961",222.49 ± 3.5 J/K/mol
same,molar heat capacity at constant pressure,"308.15 K, x1 = 1",226.07 ± 3.5 J/K/mol
same,molar heat capacity at constant pressure,"310.65 K, x1 = 0.189",194.41 ± 3 J/K/mol
same,molar heat capacity at constant pressure,"310.65 K, x1 = 0.2983",199.34 ± 3.1 J/K/mol
same,molar heat capacity at constant pressure,"310.65 K, x1 = 0.436",205.42 ± 3.2 J/K/mol
same,molar heat capacity at constant pressure,"310.65 K, x1 = 0.5902",211.86 ± 3.3 J/K/mol
same,molar heat capacity at constant pressure,"310.65 K, x1 = 0.7056",216.58 ± 3.4 J/K/mol
same,molar heat capacity at constant pressure,"310.65 K, x1 = 0.8961",224.04 ± 3.5 J/K/mol
same,molar heat capacity at constant pressure,"310.65 K, x1 = 1",227.65 ± 3.5 J/K/mol
same,molar heat capacity at constant pressure,"313.15 K, x1 = 0.189",196.3 ± 3 J/K/mol
same,molar heat capacity at constant pressure,"313.15 K, x1 = 0.2983",201.02 ± 3.1 J/K/mol
same,molar heat capacity at constant pressure,"313.15 K, x1 = 0.436",207.06 ± 3.2 J/K/mol
same,molar heat capacity at constant pressure,"313.15 K, x1 = 0.5902",213.43 ± 3.3 J/K/mol
same,molar heat capacity at constant pressure,"313.15 K, x1 = 0.7056",218.21 ± 3.4 J/K/mol
same,molar heat capacity at constant pressure,"313.15 K, x1 = 0.8961",225.64 ± 3.5 J/K/mol
same,molar heat capacity at constant pressure,"313.15 K, x1 = 1",229.24 ± 3.5 J/K/mol
same,molar heat capacity at constant pressure,"315.65 K, x1 = 0.189",198.07 ± 3.1 J/K/mol
same,molar heat capacity at constant pressure,"315.65 K, x1 = 0.2983",202.81 ± 3.1 J/K/mol
same,molar heat capacity at constant pressure,"315.65 K, x1 = 0.436",208.71 ± 3.2 J/K/mol
same,molar heat capacity at constant pressure,"315.65 K, x1 = 0.5902",215.01 ± 3.3 J/K/mol
same,molar heat capacity at constant pressure,"315.65 K, x1 = 0.7056",219.75 ± 3.4 J/K/mol
same,molar heat capacity at constant pressure,"315.65 K, x1 = 0.8961",227.18 ± 3.5 J/K/mol
same,molar heat capacity at constant pressure,"315.65 K, x1 = 1",230.82 ± 3.6 J/K/mol
same,molar heat capacity at constant pressure,"318.15 K, x1 = 0.189",199.98 ± 3.1 J/K/mol
same,molar heat capacity at constant pressure,"318.15 K, x1 = 0.2983",204.63 ± 3.2 J/K/mol
same,molar heat capacity at constant pressure,"318.15 K, x1 = 0.436",210.53 ± 3.3 J/K/mol
